For one molecule, IC50 results are on record in patent publication US4514414A, “N-Substituted pyrrolidineacetic acids and their esters” (Smithkline Beckman Corporation, priority 1982, dated 1985).

The subject of this experiment is GABA uptake by a crude synaptosomal fraction (P2) of the rat brain. Description: Inhibition of 3H-GABA uptake by crude synaptosomal fraction (P2) of rat brain. It counts as biochemical. The note with it: rat brain P2 synaptosomal suspension, 37° C., 15 minutes preincubation, 1 μM 3H-GABA, incubation time 3 minutes; read-out: IC50 (concentration producing a 50% inhibition of GABA accumulation). The procedure: The inhibition of GABA uptake produced by the compounds of this invention is measured by the ability of the active medicament to inhibit ^3 H-GABA uptake by a crude synaptosomal fraction (P2) of the rat brain. In this test system, aliquots of the P2 suspension are preincubated in a buffered physiological medium at 37° C. in the presence of test compound for 15 minutes. Uptake is initiated by the addition of ^3 H-GABA to a final concentration of 1 μM and terminated by filtration through a 0.45 um Millipore filter. Incubation time is 3 minutes. A compound producing a 50% or greater inhibition of GABA uptake at concentrations of 10 μM is considered to show biosignificant activity. The IC50 value is the concentration of a compound producing a 50% inhibition of GABA accumulation.

`O=C(O)CC1CCN(CCC=C(c2ccccc2)c2ccccc2)C1` (stereo not shown) [1-(4,4-diphenyl-3-butenyl)-3-pyrrolidineacetic acid]: the IC50 came out at 121 nM.
